Several values for one entry are separate records, joined by “and”; a condition that tells them apart may be missing. Equal values may be shown once. Toxic doses and inconclusive results are not listed. How the source made its calls: active means survival T/C of 150% or more; inactive means T/C below 125% in these data.
Tested on: P388 leukemia ip, CD2F1 mice, survival T/C
Experiment: NCI In Vivo Anticancer Drug Screen. Data for tumor model P388 Leukemia (intraperitoneal) in CD2F1 (CDF1) mice
Details: endpoint: median survival time, higher = longer survival
Summary of the method: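 Mice carrying the transplanted tumor received test compound or vehicle. Survival was recorded in each group, and the value is the treated-group measurement divided by that of the vehicle-treated control group.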

[1] = dose: 100.0 mg/kg/injection, schedule: Q04DX003 (ip), vehicle: Klucel (hydroxypropylcellulose) (HPC)
[2] = dose: 200.0 mg/kg/injection, schedule: Q04DX003 (ip), vehicle: Klucel (hydroxypropylcellulose) (HPC)
[3] = dose: 50.0 mg/kg/injection, schedule: Q01DX005 (ip), vehicle: saline
[4] = dose: 100.0 mg/kg/injection, schedule: Q01DX005 (ip), vehicle: saline
[5] = dose: 50.0 mg/kg/injection, schedule: Q01DX005 (ip), vehicle: Klucel (hydroxypropylcellulose) (HPC)
[6] = dose: 100.0 mg/kg/injection, schedule: Q01DX005 (ip), vehicle: Klucel (hydroxypropylcellulose) (HPC)
[7] = dose: 200.0 mg/kg/injection, schedule: Q01DX005 (ip), vehicle: Klucel (hydroxypropylcellulose) (HPC)
[8] = dose: 100.0 mg/kg/injection, schedule: Q01DX001 (ip), vehicle: saline with Tween-80
[9] = dose: 200.0 mg/kg/injection, schedule: Q01DX001 (ip), vehicle: saline with Tween-80
[10] = dose: 400.0 mg/kg/injection, schedule: Q01DX001 (ip), vehicle: saline with Tween-80
[11] = dose: 60.0 mg/kg/injection, schedule: Q01DX005 (ip), vehicle: saline with Tween-80
[12] = dose: 120.0 mg/kg/injection, schedule: Q01DX005 (ip), vehicle: saline with Tween-80
[13] = dose: 3.12 mg/kg/injection, schedule: Q01DX005 (ip), vehicle: saline with Tween-80
[14] = dose: 6.25 mg/kg/injection, schedule: Q01DX005 (ip), vehicle: saline with Tween-80

Measured: T/C

COC(CNCC(OC)OC)OC
inactive: dose: 3.13 mg/kg/injection, schedule: Q01DX009 (ip), vehicle: water 96 % of control | dose: 6.25 mg/kg/injection, schedule: Q01DX009 (ip), vehicle: water 102 % of control | dose: 12.5 mg/kg/injection, schedule: Q01DX009 (ip), vehicle: water 95 % of control | dose: 25.0 mg/kg/injection, schedule: Q01DX009 (ip), vehicle: water 102 % of control | dose: 50.0 mg/kg/injection, schedule: Q01DX009 (ip), vehicle: water 93 % of control | dose: 100.0 mg/kg/injection, schedule: Q01DX009 (ip), vehicle: water 104 % of control

FC(F)(F)c1ccc2c(c1)Nc1ccccc1S2
inactive: dose: 12.5 mg/kg/injection, schedule: Q04DX003 (ip), vehicle: Klucel (hydroxypropylcellulose) (HPC) 100 % of control and 105 % of control | dose: 25.0 mg/kg/injection, schedule: Q04DX003 (ip), vehicle: Klucel (hydroxypropylcellulose) (HPC) 103 % of control | dose: 50.0 mg/kg/injection, schedule: Q04DX003 (ip), vehicle: Klucel (hydroxypropylcellulose) (HPC) 108 % of control and 109 % of control | [1] 108 % of control and 118 % of control | [2] 114 % of control and 116 % of control

NC(CCP(=O)(O)O)C(=O)O (configuration not stated)
inactive: [3] 107 % of control | [4] 97 % of control | dose: 100.0 mg/kg/injection, schedule: Q04DX002 (ip), vehicle: saline with Tween-80 100 % of control | dose: 200.0 mg/kg/injection, schedule: Q01DX005 (ip), vehicle: saline 92 % of control | dose: 200.0 mg/kg/injection, schedule: Q04DX002 (ip), vehicle: saline with Tween-80 87 % of control | dose: 400.0 mg/kg/injection, schedule: Q04DX002 (ip), vehicle: saline with Tween-80 89 % of control

COc1ccc(-c2cnc3[nH]c(=O)[nH]c(=O)c3n2)cc1
inactive: dose: 100.0 mg/kg/injection, schedule: Q01DX001 (ip), vehicle: saline 100 % of control | dose: 200.0 mg/kg/injection, schedule: Q01DX001 (ip), vehicle: saline 97 % of control | dose: 400.0 mg/kg/injection, schedule: Q01DX001 (ip), vehicle: saline 90 % of control

CCOC(=O)c1ccc2c(c1)nc(-c1ccccn1)n2CCc1ccccn1
inactive: dose: 25.0 mg/kg/injection, schedule: Q01DX005 (ip), vehicle: Klucel (hydroxypropylcellulose) (HPC) 100 % of control and 102 % of control | [5] 98 % of control | [6] 100 % of control and 107 % of control | [7] 109 % of control and 110 % of control

CCn1cnc2c(=S)nc(N)[nH]c21
inactive: dose: 25.0 mg/kg/injection, schedule: Q01DX009 (ip), vehicle: Klucel (hydroxypropylcellulose) (HPC) 105 % of control

O=c1c2ccccc2ncn1-c1ccc(O)c(CN(CCCl)CCCl)c1
inactive: [8] 101 % of control | [9] 97 % of control | [10] 93 % of control

CN(C)CCC(=O)C(=Cc1ccc(Cl)c(Cl)c1)C(=O)CCN(C)C
inactive: [3] 104 % of control | [4] 109 % of control

CC1(C)CN(C2CCCCC2)CN2C1OCC2(C)C (configuration not stated)
inactive: dose: 80.0 mg/kg/injection, schedule: Q01DX009 (ip), vehicle: saline with Tween-80 117 % of control

CN(CC#CCN(C)C1=NC(=O)CC1)C1=NC(=O)CC1
inactive: dose: 60.0 mg/kg/injection, schedule: Q01DX005 (ip), vehicle: Klucel (hydroxypropylcellulose) (HPC) 92 % of control | dose: 120.0 mg/kg/injection, schedule: Q01DX005 (ip), vehicle: Klucel (hydroxypropylcellulose) (HPC) 94 % of control | dose: 240.0 mg/kg/injection, schedule: Q01DX005 (ip), vehicle: Klucel (hydroxypropylcellulose) (HPC) 100 % of control

CC(C)CNCC(=O)Nc1ccc(-c2ccc(NC(=O)CNCC(C)C)cc2)cc1
inactive: [5] 97 % of control | [6] 97 % of control | [7] 95 % of control

Cc1c(Cl)cccc1NC(=O)/C(Cl)=C1/Sc2ccccc2NC1=O
inactive: [11] 96 % of control | [12] 93 % of control | dose: 240.0 mg/kg/injection, schedule: Q01DX005 (ip), vehicle: saline with Tween-80 91 % of control

CN1CCC/C1=N\C(=Nc1ccccc1)N1CCCC1
inactive: dose: 6.25 mg/kg/injection, schedule: Q01DX005 (ip), vehicle: saline 105 % of control | dose: 12.5 mg/kg/injection, schedule: Q01DX005 (ip), vehicle: saline 102 % of control | dose: 25.0 mg/kg/injection, schedule: Q01DX005 (ip), vehicle: saline 103 % of control

CNCCc1c(C2[C@@H]3[C@H](C=C(C)CC3(C)C)[C@]34Nc5ccccc5[C@]23CCN4C)[nH]c2ccccc12 (some centres not stated)
inactive: dose: 4.0 mg/kg/injection, schedule: Q01DX009 (ip), vehicle: saline 100 % of control | dose: 8.0 mg/kg/injection, schedule: Q01DX009 (ip), vehicle: saline 94 % of control | dose: 16.0 mg/kg/injection, schedule: Q01DX009 (ip), vehicle: saline 103 % of control | dose: 32.0 mg/kg/injection, schedule: Q01DX009 (ip), vehicle: saline 100 % of control

COc1ccc(-c2csc(N)n2)cc1OC
inactive: [1] 98 % of control | [2] 101 % of control | dose: 400.0 mg/kg/injection, schedule: Q04DX003 (ip), vehicle: Klucel (hydroxypropylcellulose) (HPC) 102 % of control

Nc1nc(N)c2cc(CCc3ccccc3)ccc2n1
inactive: dose: 6.25 mg/kg/injection, schedule: Q01DX009 (ip), vehicle: saline with Tween-80 95 % of control | dose: 12.5 mg/kg/injection, schedule: Q01DX009 (ip), vehicle: saline with Tween-80 109 % of control | dose: 25.0 mg/kg/injection, schedule: Q01DX009 (ip), vehicle: saline with Tween-80 90 % of control | dose: 50.0 mg/kg/injection, schedule: Q04DX003 (ip), vehicle: saline with Tween-80 104 % of control | dose: 100.0 mg/kg/injection, schedule: Q04DX003 (ip), vehicle: saline with Tween-80 109 % of control

O=S(=O)(O)CNc1cccc(Cl)c1
inactive: dose: 50.0 mg/kg/injection, schedule: Q01DX009 (ip), vehicle: saline with Tween-80 106 % of control | dose: 100.0 mg/kg/injection, schedule: Q01DX009 (ip), vehicle: saline with Tween-80 95 % of control | dose: 200.0 mg/kg/injection, schedule: Q01DX009 (ip), vehicle: saline with Tween-80 98 % of control

COC(=O)C1=C(C(=O)OC)P2(c3ccccc3)(c3ccccc3)N(C)C(=S)N2C1(c1ccccc1)c1ccccc1
inactive: [5] 103 % of control | [6] 105 % of control | [7] 90 % of control

O=[N+]([O-])c1c(Nc2ccccc2)n(-c2ccccc2)c2ccc(O)cc12
inactive: [13] 92 % of control | [14] 102 % of control | dose: 12.5 mg/kg/injection, schedule: Q01DX005 (ip), vehicle: saline with Tween-80 90 % of control and 92 % of control | dose: 50.0 mg/kg/injection, schedule: Q01DX005 (ip), vehicle: saline with Tween-80 86 % of control

CC(=O)Nc1nc([N+](=O)[O-])c(C(C)C)s1
inactive: [8] 98 % of control | [9] 97 % of control | [10] 93 % of control

O/C(=C/c1ncnc2ccccc12)c1cccc(Cl)c1
inactive: [11] 102 % of control | [12] 92 % of control

C=CCn1c(=O)oc2ccc(Cl)cc21
inactive: dose: 10.0 mg/kg/injection, schedule: Q01DX009 (ip), vehicle: saline with Tween-80 104 % of control | dose: 20.0 mg/kg/injection, schedule: Q01DX009 (ip), vehicle: saline with Tween-80 104 % of control | dose: 40.0 mg/kg/injection, schedule: Q01DX009 (ip), vehicle: saline with Tween-80 104 % of control

COc1ccc(C2=C[P+](c3ccccc3)(c3ccccc3)C=C(c3ccccc3)O2)cc1
inactive: dose: 0.75 mg/kg/injection, schedule: Q01DX005 (ip), vehicle: saline with Tween-80 100 % of control and 110 % of control | dose: 0.75 mg/kg/injection, schedule: Q01DX005 (ip), vehicle: saline 120 % of control | dose: 1.5 mg/kg/injection, schedule: Q01DX005 (ip), vehicle: saline with Tween-80 108 % of control and 119 % of control | dose: 1.5 mg/kg/injection, schedule: Q01DX005 (ip), vehicle: saline 110 % of control | dose: 3.0 mg/kg/injection, schedule: Q01DX005 (ip), vehicle: saline with Tween-80 110 % of control and 120 % of control | dose: 3.0 mg/kg/injection, schedule: Q01DX005 (ip), vehicle: saline 120 % of control | [13] 114 % of control | dose: 6.0 mg/kg/injection, schedule: Q01DX005 (ip), vehicle: saline with Tween-80 111 % of control | [14] 118 % of control
